Where two headings read alike, the source gives them in different places.
How the values were obtained:
[1] = Plasma pharmacokinetics of acivicin in cats with concomitant infusion; conditions: cat, in vivo, ip, 60 mg/kg, mean ± s.d.; for Vd/F: read-out: Varea
Experimental: Blood was sampled through the blood sampling cannula at -4.0, 0, +4, +6, +9, +12, +18, +24 and +30 hours relative to the acivicin dose, for determination of acivicin concentration by microbiological assay.

cancer patients [2] = conditions: cited from earlier work
cancer patients [3] = conditions: clinical trials conducted to date; cited from earlier work
tumor cell = conditions: laboratory data; cited from earlier work
Acivicin-Treated Cats = assay: Incidence of toxic symptoms (mydriasis, vomiting, sedation, ataxia) in acivicin-treated cats with concomitant infusion
[4] = acivicin 60 mg/kg i.p. plus infusion of the named solution, label Acivicin = saline infusion, affected/treated cats

`N[C@H](C(=O)O)[C@@H]1CC(Cl)=NO1` [Acivicin, (αS,5S)-α-amino-3-chloro-2-isoxazoline-5-acetic acid] gave a CL/F ([1]; Aminosyn infusion, n=2) of 1.83 mL/min/kg, a half-life ([1]; Aminosyn infusion, n=2) of 4.3 ± 0.7 h and a k el ([1]; Aminosyn infusion, n=2) of 4.44e-05 s⁻¹. The Vd/F ([1]; Aminosyn infusion, n=2) was 0.684 ± 0.064 L/kg, the CL/F ([1]; LNAA infusion, n=3) was 1.05 mL/min/kg and the half-life ([1]; LNAA infusion, n=3) was 8.3 ± 0.8 h. The k el ([1]; LNAA infusion, n=3) was 2.33e-05 s⁻¹, the Vd/F ([1]; LNAA infusion, n=3) was 0.75 ± 0.081 L/kg and the CL/F ([1]; OAA infusion, n=3) was 1.28 mL/min/kg. It also gave a half-life ([1]; OAA infusion, n=3) of 7.4 ± 1.06 h, a k el ([1]; OAA infusion, n=3) of 2.64e-05 s⁻¹ and a Vd/F ([1]; OAA infusion, n=3) of 0.814 ± 0.061 L/kg. The CL/F ([1]; Saline infusion, n=3) was 1.28 mL/min/kg, the half-life ([1]; Saline infusion, n=3) was 8.4 ± 2.5 h and the k el ([1]; Saline infusion, n=3) was 2.42e-05 s⁻¹. It also gave a Vd/F ([1]; Saline infusion, n=3) of 0.893 ± 0.143 L/kg, a CL/F ([1]; second line "aminosyn", n=4) of 0.918 mL/min/kg and a half-life ([1]; second line "aminosyn", n=4) of 8.18 ± 1.36 h. The k el ([1]; second line "aminosyn", n=4) was 2.58e-05 s⁻¹, the Vd/F ([1]; second line "aminosyn", n=4) was 0.625 ± 0.0123 L/kg and the CL/F ([1]; second line "saline", n=4) was 1.85 mL/min/kg. For the same compound, the half-life ([1]; second line "saline", n=4) was 2.6 ± 0.41 h, the k el ([1]; second line "saline", n=4) was 7.64e-05 s⁻¹ and the Vd/F ([1]; second line "saline", n=4) was 0.408 ± 0.0331 L/kg. For the same compound, the “CNS effects in humans” value (cancer patients [2]; dose-limiting) was “reversible, dose-limiting CNS effects such as sedation, ataxia, personality changes and hallucinations”, the dose-limiting toxicity (cancer patients [2]; previous Phase I and II trials) was “neurotoxicity which is dose-dependent and reversible” and the “efficacy in clinical trials” value (cancer patients [3]) was “marginal”. The “dependence of cytotoxicity on tumor cell exposure concentration and duration” value (tumor cell) was “strong dependence”, the incidence of ataxia (Acivicin-Treated Cats; [4]) was 4/4 and the incidence of mydriasis (Acivicin-Treated Cats; [4]) was 4/4. The incidence of sedation (Acivicin-Treated Cats; [4]) was 4/4, the incidence of vomiting (Acivicin-Treated Cats; [4]) was 1/4 and the “ataxia and sedation (in words)” value (Acivicin-Treated Cats; acivicin-treated cats, label Acivicin = saline-treated) was “both ataxic sedated”.

Source: patent US5087639A, “Preventing CNS toxicity of acivicin when used with four large neutral amino acids” (The Upjohn Company, priority 1988, dated 1992)
